The results in this text go back to patent US11306124B2, “Agonist agents of CD47 inducing programmed cell death and their use in the treatments of diseases associated with defects in programmed cell death” (SORBONNE UNIVERSITE, priority 2016, dated 2022).

Where two headings read alike, the source gives them in different places. Residues, ends and D or L forms follow the SMILES beside them.

In one series the test system is HCT-116 cells. In kind it is cell-based, human. The settings on record: for Viable, Mean (%): human; for Viable, Mean (%) / Early Apoptosis, Mean (%) / Late apoptosis, Mean (%): 2 h; for Early Apoptosis, Mean (%) / Late apoptosis, Mean (%): HCT-116 cells. The method, then: 2.2.2. Cell Death Analysis by Flow Cytometry
To detect possible apoptotic processes, cells were seeded in 35 mm dishes and cultured in media containing each tested cyclic peptide for 2 hours following procedure A or B.
Procedure B: Peptides were incubated for 2 hours on HCT-116 cells. Superkiller Trail (ALX-201-115C-010) was used as a positive pro-apoptotic control. Cells were analyzed by cytofluorometry using FITC Annexin V apoptosis detection kit with 7-AAD from BIOLEGEND (BLE640922).

Series [1] deals with MCF-7, HCT-116, BxPC3 and A549 cancer cells. As to the kind of experiment: Cell viability and proliferation of tumor cells (cytotoxic assay and direct cell counting). In kind it is cell-based, human. To be noted: for viability in all cell strains: 2 hours, 10 to 50 μM peptide concentration; for efficiency in inducing cell death on cancer cell lines: MCF-7, HCT-116, BxPC3, A549. The method, then:
The effects of several cyclic peptides of the invention on the proliferation of tumor cells were evaluated on 5 cell lines (MCF-7, human breast cancer cells; HCT-116, human colon cancer cells; BxPC3, human pancreas cancer cells and A549, human lung cancer cells) by cytotoxic assay and by counting directly the number of cells.
Those cyclic peptides were dissolved in DMSO at the following concentrations: 0, 5, 10, 25, 50 and 100 μM.
Culture media used for these assays are: EMEM=10% SVF for MCF-7 and Wi38; RPMI […] SVF for HCT-116 and BxPC3 and F-12K=10% SVF for A549.
500 cells were seeded in 96-well plates, incubated at 37° C. for 24 hours, and treated by the cyclic peptides at the different concentrations and controls for 2 h.

The mark [2] stands for this setting: peptide concentration 12.5 (μM).

On to `CC[C@H](C)[C@@H]1NC(=O)CNC(=O)[C@@H]2CCCN2C(=O)[C@H]2CCCN2C(=O)[C@H](CCCCN)NC(=O)[C@H](Cc2c[nH]c3ccccc23)NC(=O)[C@H](CCSC)NC(=O)[C@H](C(C)C)NC(=O)[C@H](C(C)C)NC(=O)[C@H](Cc2ccc(O)cc2)NC(=O)[C@H](Cc2ccccc2)NC(=O)[C@H](CCCNC(=N)N)NC(=O)[C@H](CO)NC(=O)[C@H](CO)NC(=O)[C@H](CCCCN)NC(=O)[C@H](C(C)C)NC(=O)[C@H](C(C)C)NC(=O)[C@H](CCCCN)NC(=O)[C@H](C(C)C)NC(=O)[C@H](CO)NC1=O` [PKTD1, —S—R—F—Y—V—V—M—W—K—p—P—G—I—S—V—K—V—V—K—S—] (HELM PEPTIDE1{G.I.S.V.K.V.V.K.S.S.R.F.Y.V.V.M.W.K.[dP].P}$PEPTIDE1,PEPTIDE1,1:R1-20:R2$$$V2.0), for which the entries for the “Viable, Mean (%)” value in the series with HCT-116 cells (12.5 μM), with HCT-116 cells (25 μM) and with HCT-116 cells (50 μM) were 76.44%, 63.51% and 37.56%, respectively.
Regarding “—S—R—F—Y—V—V—M—W—K—p—P—S—R—F—Y—V—V—M—W—K— (SRFYVVMWKPPSRFYVVMWK; HELM PEPTIDE1{S.R.F.Y.V.V.M.W.K.[dP].P.S.R.F.Y.V.V.M.W.K}$PEPTIDE1,PEPTIDE1,1:R1-20:R2$$$V2.0; SMILES CSCC[C@@H]1NC(=O)[C@H](C(C)C)NC(=O)[C@H](C(C)C)NC(=O)[C@H](Cc2ccc(O)cc2)NC(=O)[C@H](Cc2ccccc2)NC(=O)[C@H](CCCNC(=N)N)NC(=O)[C@H](CO)NC(=O)[C@@H]2CCCN2C(=O)[C@H]2CCCN2C(=O)[C@H](CCCCN)NC(=O)[C@H](Cc2c[nH]c3ccccc23)NC(=O)[C@H](CCSC)NC(=O)[C@H](C(C)C)NC(=O)[C@H](C(C)C)NC(=O)[C@H](Cc2ccc(O)cc2)NC(=O)[C@H](Cc2ccccc2)NC(=O)[C@H](CCCNC(=N)N)NC(=O)[C@H](CO)NC(=O)[C@H](CCCCN)NC(=O)[C@H](Cc2c[nH]c3ccccc23)NC1=O; listed as Homo sapiens) [PKTD16]”, in series [1], the “viability in all cell strains” value is “dose-dependent viability decrease”.
Take `CC(C)C[C@@H]1NC(=O)[C@@H]2CCCN2C(=O)[C@H]2CCCN2C(=O)[C@H](Cc2c[nH]c3ccccc23)NC(=O)[C@H](CCCCN)NC(=O)[C@H](C(C)C)NC(=O)[C@H](C(C)C)NC(=O)[C@H](Cc2ccccc2)NC(=O)[C@H](Cc2ccccc2)NC(=O)[C@H](C(C)C)NC(=O)[C@H](C(C)C)NC(=O)[C@H](CCCCN)NC(=O)[C@H](C(C)C)NC(=O)[C@H](CO)NC1=O` [PKD10-FF, —F—F—V—V—K—W—p—P—L—S—V—K—V—V—] (HELM PEPTIDE1{F.F.V.V.K.W.[dP].P.L.S.V.K.V.V}$PEPTIDE1,PEPTIDE1,1:R1-14:R2$$$V2.0): the “Viable, Mean (%)” value with HCT-116 cells (12.5 μM) turned out to be 25.225%; in the series on HCT-116 cells (25 μM), 30.445%; in the series with HCT-116 cells (50 μM), 31.97%.
As for `CSCC[C@@H]1NC(=O)[C@H](C(C)C)NC(=O)[C@H](C(C)C)NC(=O)[C@H](Cc2ccc(O)cc2)NC(=O)[C@H](Cc2ccccc2)NC(=O)[C@H](CCCNC(=N)N)NC(=O)[C@H](CCCCN)NC(=O)[C@H](Cc2c[nH]c3ccccc23)NC1=O` [PKC1, reference compound], the “Early Apoptosis, Mean (%)” value was 4.54% with HCT-116 cells (setting [2]), 4.55% in the series on HCT-116 cells (peptide concentration 25 (μM)) and 4.98% in the series on HCT-116 cells (peptide concentration 50 (μM)). The “Late apoptosis, Mean (%)” value in the series with HCT-116 cells (setting [2]) is 2.25%; in the series with HCT-116 cells (peptide concentration 25 (μM)), 2.56%; in the series with HCT-116 cells (peptide concentration 50 (μM)), 2.75%. Also, in the series with HCT-116 cells (from 12.5 to 50 μM), the “efficacy in triggering PCD” value is listed as “no efficacy”. In addition, the figures for the “Viable, Mean (%)” value with HCT-116 cells (12.5 μM), in the series on HCT-116 cells (25 μM) and in the series on HCT-116 cells (50 μM) were 92.95%, 92.72% and 92.15%, respectively. Besides, in series [1], the “efficiency in inducing cell death on cancer cell lines” value (from here on “efficiency in inducing cell death”) is “no potency in inducing cell death”.
Regarding “—S—R—F—Y—V—V—M—W—K—Q—p—P—S—G—L—S—V—K—V—V—N—S— [PKTD11]”, in series [1], the “viability in all cell strains” value is “dose-dependent viability decrease” and the “efficiency in inducing cell death” value was “efficient in inducing cell death”.
As for `CSCC[C@@H]1NC(=O)[C@H](C(C)C)NC(=O)[C@H](C(C)C)NC(=O)[C@H](Cc2ccc(O)cc2)NC(=O)[C@H](Cc2ccccc2)NC(=O)[C@H](CCCNC(=N)N)N(C)C(=O)[C@H](CO)NC(=O)[C@H](CO)NC(=O)[C@H](CC(N)=O)NC(=O)[C@H](C(C)C)NC(=O)[C@H](C(C)C)NC(=O)[C@H](CCCCN)NC(=O)[C@H](C(C)C)NC(=O)[C@H](CO)NC(=O)[C@H](CC(C)C)NC(=O)CNC(=O)[C@H](CO)NC(=O)[C@@H]2CCCN2C(=O)[C@H]2CCCN2C(=O)[C@H](CCC(N)=O)NC(=O)[C@H](CCCCN)NC(=O)[C@H](Cc2c[nH]c3ccccc23)NC1=O` (relative stereo) [PKTD11RNMe, —S—R*—F—Y—V—V—M—W—K—Q—p—P—S—G—L—S—V—K—V—V—N—S— R* = RNMe], the entries for the “Viable, Mean (%)” value in the series on HCT-116 cells (12.5 μM), in the series on HCT-116 cells (25 μM) and with HCT-116 cells (50 μM) were 88.71%, 86.38% and 67.03%, respectively.
For `CSCC[C@@H]1NC(=O)[C@@H](C(C)C)NC(=O)[C@H](C(C)C)NC(=O)[C@H](Cc2ccc(O)cc2)NC(=O)[C@H](Cc2ccccc2)NC(=O)[C@H](CCCNC(=N)N)N(C)C(=O)[C@H](CO)NC(=O)[C@H](CO)NC(=O)[C@H](CC(N)=O)NC(=O)[C@H](C(C)C)NC(=O)[C@H](C(C)C)NC(=O)[C@H](CCCCN)NC(=O)[C@H](C(C)C)NC(=O)[C@H](CO)NC(=O)[C@H](CC(C)C)NC(=O)CNC(=O)[C@@H]2CCCN2C(=O)[C@H]2CCCN2C(=O)[C@H](CCCCN)NC(=O)[C@H](Cc2c[nH]c3ccccc23)NC1=O` (relative stereo) [PKTD10-RNMe, —S—R*—F—Y—V—V—M—W—K—p—P—G—L—S—V—K—V—V—N—S— R* = RNMe], the “Viable, Mean (%)” value is 91.72% with HCT-116 cells (12.5 μM), 91.10% with HCT-116 cells (25 μM) and 76.73% in the series with HCT-116 cells (50 μM).
As for `CC[C@@H](C)[C@@H]1NC(=O)CNC(=O)[C@@H]2CCCN2C(=O)[C@H]2CCCN2C(=O)[C@H](CCCCN)NC(=O)[C@H](Cc2c[nH]c3ccccc23)NC(=O)[C@H](CCSC)NC(=O)[C@@H](C(C)C)NC(=O)[C@H](C(C)C)NC(=O)[C@H](Cc2ccc(O)cc2)NC(=O)[C@H](Cc2ccccc2)NC(=O)[C@H](CCCNC(=N)N)NC(=O)C(CC(N)=O)NC(=O)[C@H](C(C)C)NC(=O)[C@H](C(C)C)NC(=O)[C@H](CCCCN)NC(=O)[C@H](C(C)C)NC(=O)[C@H](CO)NC1=O` (stereo partly shown) [PKTD7, —R—F—Y—V—V—M—W—K—p—P—G—I—S—V—K—V—V—N—] (HELM PEPTIDE1{G.[CC[C@@H](C)[C@H](N[*:1])C(=O)[*:2]].S.V.K.V.V.[NC(=O)CC(N[*:1])C(=O)[*:2]].R.F.Y.V.[dV].M.W.K.[dP].P}$PEPTIDE1,PEPTIDE1,1:R1-18:R2$$$V2.0), in series [1], the “viability in all cell strains” value is reported as “dose-dependent viability decrease” and the “efficiency in inducing cell death” value was “efficient in inducing cell death”.
For the compound `CCCC[C@@H]1NC(=O)[C@@H](C(C)C)NC(=O)[C@H](C(C)C)NC(=O)[C@H](Cc2ccc(O)cc2)NC(=O)[C@H](Cc2ccccc2)NC(=O)[C@H](CCCNC(=N)N)N(C)C(=O)[C@H](CO)NC(=O)[C@H](CO)NC(=O)[C@H](CC(N)=O)NC(=O)[C@H](C(C)C)NC(=O)[C@H](C(C)C)NC(=O)[C@H](CCCCN)NC(=O)[C@H](C(C)C)NC(=O)[C@H](CO)NC(=O)[C@H](CC(C)C)NC(=O)CNC(=O)[C@@H]2CCCN2C(=O)[C@H]2CCCN2C(=O)[C@H](CCCCN)NC(=O)[C@H](Cc2c[nH]c3ccccc23)NC1=O` (relative stereo) [PKTD10-X-RNMe, —S—R*—F—Y—V—V—X—W—K—p—P—G—L—S—V—K—V—V—N—S— R* = RNMe and X = NLe], the “Viable, Mean (%)” value in the series on HCT-116 cells (12.5 μM) was 82.76%; with HCT-116 cells (25 μM), 75.17%; with HCT-116 cells (50 μM) it was 48.31%.
In the case of `CSCC[C@@H]1NC(=O)[C@@H](C(C)C)NC(=O)[C@H](C(C)C)NC(=O)[C@H](Cc2ccc(O)cc2)NC(=O)[C@H](Cc2ccccc2)NC(=O)[C@H](CCCNC(=N)N)NC(=O)[C@H](CO)NC(=O)CNC(=O)[C@H](CC(N)=O)NC(=O)[C@H](C(C)C)NC(=O)[C@H](C(C)C)NC(=O)[C@H](CCCCN)NC(=O)[C@H](C(C)C)NC(=O)[C@H](CO)NC(=O)[C@H](CC(C)C)NC(=O)CNC(=O)[C@@H]2CCCN2C(=O)[C@H]2CCCN2C(=O)[C@H](CCCCN)NC(=O)[C@H](Cc2c[nH]c3ccccc23)NC1=O` [PKTD18, —S—R—F—Y—V—V—M—W—K—p—P—G—L—S—V—K—V—V—N—G—] (HELM PEPTIDE1{S.R.F.Y.V.[dV].M.W.K.[dP].P.G.L.S.V.K.V.V.N.G}$PEPTIDE1,PEPTIDE1,1:R1-20:R2$$$V2.0), the entries for the “Viable, Mean (%)” value in the series on HCT-116 cells (12.5 μM), in the series with HCT-116 cells (25 μM) and with HCT-116 cells (50 μM) were 82.45%, 75.12% and 67.48%, respectively.
